Assay results reported in US20250333394A1, “Tiparp Inhibitor Compounds” (AbbVie Inc., priority 2024, published 2025).

Key:
TIPARP GST-(TEV) = TIPARP GST-(TEV) (Homo sapiens (Human), UniProt Q7Z3E1); test: TR-FRET binding assay, TIPARP
Procedure, shortened: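 N-terminal GST-TEV-tagged human TIPARP with protein/probe mix in 50 mM Tris-HCl pH 8.0, 5 mM MgCl2, 5 µM ZnCl2, 1 mM DTT, 0.15% BSA, 0.01% Triton X-100, plus 1 nM Tb-anti-GST antibody. Compounds at 30 µM to 0.5 nM final, 3-fold steps. TR-FRET ratio read after 2 h at ambient temperature.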

PARP1 GST = PARP1 GST (Homo sapiens (Human), UniProt P09874); test: TR-FRET binding assay, PARP1; conditions: Probe 2, 2 hours incubation
Sequence of PARP1 GST (P09874 whole entry): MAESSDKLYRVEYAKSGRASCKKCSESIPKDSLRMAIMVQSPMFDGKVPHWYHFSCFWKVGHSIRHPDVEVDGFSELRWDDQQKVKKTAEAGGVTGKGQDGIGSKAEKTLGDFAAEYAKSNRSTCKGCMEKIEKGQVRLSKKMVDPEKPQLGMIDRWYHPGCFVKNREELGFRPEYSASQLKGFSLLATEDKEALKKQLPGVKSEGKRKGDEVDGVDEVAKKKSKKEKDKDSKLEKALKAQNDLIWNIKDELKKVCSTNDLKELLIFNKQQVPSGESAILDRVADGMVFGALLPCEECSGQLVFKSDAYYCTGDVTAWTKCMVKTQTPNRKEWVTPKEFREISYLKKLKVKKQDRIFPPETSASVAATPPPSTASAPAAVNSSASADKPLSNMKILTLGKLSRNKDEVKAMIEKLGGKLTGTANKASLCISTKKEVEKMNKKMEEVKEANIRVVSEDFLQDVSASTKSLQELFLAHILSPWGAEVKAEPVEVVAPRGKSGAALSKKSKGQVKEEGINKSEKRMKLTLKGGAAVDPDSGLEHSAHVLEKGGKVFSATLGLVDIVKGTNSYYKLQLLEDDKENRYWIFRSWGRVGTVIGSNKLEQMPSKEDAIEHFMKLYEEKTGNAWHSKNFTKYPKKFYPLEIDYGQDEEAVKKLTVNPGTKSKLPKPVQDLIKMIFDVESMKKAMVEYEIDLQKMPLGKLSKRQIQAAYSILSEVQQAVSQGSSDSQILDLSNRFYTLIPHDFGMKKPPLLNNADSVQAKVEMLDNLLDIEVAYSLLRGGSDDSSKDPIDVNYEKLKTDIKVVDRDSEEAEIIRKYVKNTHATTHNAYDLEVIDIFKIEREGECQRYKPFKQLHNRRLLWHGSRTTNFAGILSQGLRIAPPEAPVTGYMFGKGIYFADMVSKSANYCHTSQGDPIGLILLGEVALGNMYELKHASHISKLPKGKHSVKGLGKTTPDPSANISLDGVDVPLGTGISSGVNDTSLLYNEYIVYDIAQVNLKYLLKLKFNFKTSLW
Procedure, shortened: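 Serially diluted compounds, final 30 μM down to 0.5 nM, incubated 2 h at ambient temperature with GST-tagged protein/probe mix plus 1 nM Tb-anti-GST antibody. Buffer: 50 mM Tris-HCl pH 8.0, 5 mM MgCl2, 5 μM ZnCl2, 1 mM DTT, 0.15% BSA, 0.01% Triton X-100. Binding read as TR-FRET ratio.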

NCI-H1373 cells = test: NCI-H1373 CellTiter-Glo cell assay for TIPARP inhibition; assay type: cell-based, human; conditions: Homo sapiens, NCI-H1373, 144 h; 6 days, 100 nM 10-Cl-BBQ in medium; read-out: NCI-H1373 CTG EC50
Procedure, shortened: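 NCI-H1373 cells (1000/well) grown in RPMI 1640 with 10% FBS and 100 nM 10-Cl-BBQ, exposed to compounds from 30 μM to 0.5 nM final in 3-fold steps for 6 days at 37° C. Cell number read on day 7 by CellTiter-Glo luminescence.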

NCI-H1373 tumors = test: NCI-H1373 xenograft tumor model efficacy; assay type: in vivo, mouse; conditions: PO BID for 14 days, SCID-beige mice
Experimental: The human xenograft line NCI-H1373 was obtained from ATCC (American Type Culture Collection, Manassas, Virginia, USA). A suspension of 5×10^6 cells in culture medium mixed with Matrigel® (Corning Life Sciences, Lowell, MA, USA; 1:1, volume:volume) was injected subcutaneously in the right hind flank of female SCID-beige mice to generate tumor formation. Treatment started when the size of the flank tumors was approximately 120 mm^3. The TIPARP inhibition activity of Example 1 was evaluated by dosing five separate treatment groups with vehicle and four different doses of Example 1, administered twice a day (BID) for 14 days. Each administration consisted of a 0.2 mL PO dose in a vehicle formulation (10% ethanol, 30% PEG300, and 60% PHOSAL® 50).

Sequence of TIPARP GST-(TEV) (Q7Z3E1 441-657): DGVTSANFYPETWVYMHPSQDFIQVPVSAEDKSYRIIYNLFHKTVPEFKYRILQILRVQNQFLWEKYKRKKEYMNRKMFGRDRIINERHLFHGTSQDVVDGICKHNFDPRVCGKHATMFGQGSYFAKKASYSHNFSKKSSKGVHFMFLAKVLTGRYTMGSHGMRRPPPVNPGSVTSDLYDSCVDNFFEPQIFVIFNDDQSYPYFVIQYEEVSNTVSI

C[C@@H]1CN(c2ncc(C(F)(F)F)cn2)CCN1C(=O)[C@H]1C[C@@H](c2c[nH]c(=O)c(C(F)(F)F)c2)C1 [Example 1, 5-[(1S,3s)-3-{(2R)-2-methyl-4-[5-(trifluoromethyl)pyrimidin-2-yl]piperazine-1-carbonyl}cyclobutyl]-3-(trifluoromethyl)pyridin-2(1H)-one]
IC50 (TIPARP GST-(TEV); TR-FRET, Probe 1, 2 hours incubation): 2.4 nM | PARP1/TIPARP IC50 Ratio (TIPARP GST-(TEV); ratio of PARP1 GST IC50 to TIPARP GST-(TEV) IC50): 1140 | IC50 (PARP1 GST): 2740 nM | EC50 (NCI-H1373 cells): 17.2 nM | TGIMax (NCI-H1373 tumors; Dose A): 26% | TGIMax (NCI-H1373 tumors; Dose B): 46% | TGIMax (NCI-H1373 tumors; Dose C): 73% | TGIMax (NCI-H1373 tumors; Dose D): 92%
